According to PubChem BioAssay AID256 (DTP/NCI, 2004):
Toxic doses and inconclusive results are not listed. Rule for the calls: active = survival T/C of 150% or more; inactive = T/C below 125% in these data.

System: CD2F1 mice, L1210 leukemia ip, survival T/C
Assay: NCI In Vivo Anticancer Drug Screen. Data for tumor model L1210 Leukemia (intraperitoneal) in CD2F1 (CDF1) mice
Conditions: higher = longer survival
In short: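 In this screen, transplantable tumors were grown in mice given either the compound or its vehicle. Results were expressed as the treated measurement relative to the control measurement.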

[1] = endpoint: mean survival time, dose: 100.0 mg/kg/injection, schedule: Q01DX001 (ip), vehicle: saline with Tween-80
[2] = endpoint: mean survival time, dose: 200.0 mg/kg/injection, schedule: Q01DX001 (ip), vehicle: saline with Tween-80
[3] = endpoint: mean survival time, dose: 400.0 mg/kg/injection, schedule: Q01DX001 (ip), vehicle: saline with Tween-80
[4] = endpoint: mean survival time, dose: 100.0 mg/kg/injection, schedule: Q04DX003 (ip), vehicle: saline with Tween-80
[5] = endpoint: mean survival time, dose: 200.0 mg/kg/injection, schedule: Q04DX003 (ip), vehicle: saline with Tween-80
[6] = endpoint: mean survival time, dose: 400.0 mg/kg/injection, schedule: Q04DX003 (ip), vehicle: saline with Tween-80
[7] = endpoint: mean survival time, dose: 100.0 mg/kg/injection, schedule: Q01DX009 (ip), vehicle: saline with Tween-80
[8] = endpoint: mean survival time, dose: 200.0 mg/kg/injection, schedule: Q01DX009 (ip), vehicle: saline with Tween-80
[9] = endpoint: mean survival time, dose: 400.0 mg/kg/injection, schedule: Q01DX009 (ip), vehicle: saline with Tween-80
[10] = endpoint: mean survival time, dose: 100.0 mg/kg/injection, schedule: Q04DX003 (ip), vehicle: saline

Measured: T/C

Cc1ccc(S(=O)(=O)OC(c2ccccc2)C(F)(F)F)cc1 (configuration not stated)
inactive: [1] 100 % of control | [2] 103 % of control | [3] 94 % of control

COC(=O)C(Cc1cnc[nH]1)NC(=O)c1ccccc1 (configuration not stated)
inactive: [4] 103 % of control | [5] 104 % of control | [6] 97 % of control

CCCn1c(O)c(C=N)c(=O)n(CCC)c1=O
inactive: [7] 98 % of control | [4] 96 % of control | [8] 101 % of control | [5] 97 % of control | [9] 101 % of control | [6] 100 % of control

CN1CSC(=S)N(Cc2ccccc2)C1
inactive: [7] 93 % of control | [8] 93 % of control | [9] 93 % of control

CC1=CC2C(O)(CC(CO)=CC3C4C(C)(C)C4(OC(=O)c4ccccc4)C(OC(=O)c4ccccc4)C(C)C32O)C1=O (configuration not stated)
inactive: endpoint: median survival time, dose: 0.25 mg/kg/injection, schedule: Q01DX009 (ip), vehicle: saline with Tween-80 95 % of control | endpoint: median survival time, dose: 0.5 mg/kg/injection, schedule: Q01DX009 (ip), vehicle: saline with Tween-80 94 % of control | endpoint: median survival time, dose: 1.0 mg/kg/injection, schedule: Q01DX009 (ip), vehicle: saline with Tween-80 94 % of control

C1CCC(C2CCCC[N-]2)[N-]C1.C1CCC(C2CCCC[N-]2)[N-]C1.O=C(O)C(=O)O.[Ru+4] (configuration not stated)
inactive: endpoint: mean survival time, dose: 3.13 mg/kg/injection, schedule: Q04DX003 (ip), vehicle: water 101 % of control | endpoint: mean survival time, dose: 6.25 mg/kg/injection, schedule: Q04DX003 (ip), vehicle: water 93 % of control | endpoint: mean survival time, dose: 12.5 mg/kg/injection, schedule: Q04DX003 (ip), vehicle: water 96 % of control | endpoint: mean survival time, dose: 25.0 mg/kg/injection, schedule: Q04DX003 (ip), vehicle: water 93 % of control | endpoint: mean survival time, dose: 50.0 mg/kg/injection, schedule: Q04DX003 (ip), vehicle: water 93 % of control | endpoint: mean survival time, dose: 100.0 mg/kg/injection, schedule: Q04DX003 (ip), vehicle: water 95 % of control | endpoint: mean survival time, dose: 200.0 mg/kg/injection, schedule: Q04DX003 (ip), vehicle: water 91 % of control

CCCCCCCCc1ccc(O)c(Cl)c1
inactive: [4] 94 % of control | [5] 91 % of control | [6] 94 % of control

O=C(COc1cccc(Cl)c1)NCc1cccc(NC(=O)Nc2cccc(S(=O)(=O)F)c2)c1
inactive: [1] 91 % of control | [2] 98 % of control | [3] 101 % of control

Cc1cc(N/N=c2/c3ccccc3n(O)c3c2ccc2ccccc23)ccc1O
inactive: [4] 104 % of control | [5] 104 % of control | [6] 104 % of control

OCCOCCN1CCN(CC/C=C2\c3ccccc3Sc3ccc(C(F)(F)F)cc32)CC1
inactive: endpoint: mean survival time, dose: 0.75 mg/kg/injection, schedule: Q01DX009 (ip), vehicle: saline 87 % of control | endpoint: mean survival time, dose: 1.5 mg/kg/injection, schedule: Q01DX009 (ip), vehicle: saline 94 % of control | endpoint: mean survival time, dose: 3.0 mg/kg/injection, schedule: Q01DX009 (ip), vehicle: saline 100 % of control | endpoint: mean survival time, dose: 6.25 mg/kg/injection, schedule: Q04DX003 (ip), vehicle: saline 103 % of control | endpoint: mean survival time, dose: 8.0 mg/kg/injection, schedule: Q04DX003 (ip), vehicle: saline with Tween-80 115 % of control | endpoint: mean survival time, dose: 12.0 mg/kg/injection, schedule: Q04DX003 (ip), vehicle: saline with Tween-80 116 % of control | endpoint: mean survival time, dose: 25.0 mg/kg/injection, schedule: Q04DX003 (ip), vehicle: saline 97 % of control | endpoint: mean survival time, dose: 50.0 mg/kg/injection, schedule: Q04DX003 (ip), vehicle: saline 111 % of control | [10] 93 % of control

CC(O)C[As](=O)(O)c1ccc(Cl)cc1 (configuration not stated)
inactive: endpoint: mean survival time, dose: 6.25 mg/kg/injection, schedule: Q04DX003 (ip), vehicle: saline with Tween-80 95 % of control | endpoint: mean survival time, dose: 12.5 mg/kg/injection, schedule: Q04DX003 (ip), vehicle: saline with Tween-80 107 % of control | endpoint: mean survival time, dose: 25.0 mg/kg/injection, schedule: Q04DX003 (ip), vehicle: saline with Tween-80 107 % of control

O/N=C/c1ccccn1
inactive: endpoint: mean survival time, dose: 75.0 mg/kg/injection, schedule: Q04DX003 (ip), vehicle: saline with Tween-80 96 % of control | endpoint: mean survival time, dose: 150.0 mg/kg/injection, schedule: Q04DX003 (ip), vehicle: saline with Tween-80 104 % of control | endpoint: mean survival time, dose: 300.0 mg/kg/injection, schedule: Q04DX003 (ip), vehicle: saline with Tween-80 98 % of control

CCC1C(=O)OCc2c1cc1n(c2=O)C(CC)c2c-1nc1ccccc1c2Cl (configuration not stated)
inactive: [10] 98 % of control | endpoint: mean survival time, dose: 200.0 mg/kg/injection, schedule: Q04DX003 (ip), vehicle: saline 95 % of control | endpoint: mean survival time, dose: 400.0 mg/kg/injection, schedule: Q04DX003 (ip), vehicle: saline 90 % of control
